Results reported in patent US20240132522A1, “HETEROCYCLIC COMPOUNDS AND METHODS OF USE THEREOF” (1cBio, Inc., priority 2022, published 2024).
Where a name gives a salt, the structure may show the parent alone.

Target: recombinant human PARP1 (Homo sapiens, UniProt P09874)
Assay: PARP1 fluorescence polarization binding assay
Conditions: binding IC50, GST-tagged PARP1 20 nM, PARPi-FL probe 3 nM, 4 h at RT
Experimental: In some embodiments, the biological assay is described in the Examples herein. In some embodiments, the biological assay measures PARP-1 binding by way of fluorescence polarization measurements. In some embodiments, binding of a test compound to recombinant human PARP-1 reduces the amount of binding of a fluorescent probe, and consequently reduces the detected level of fluorescence polarization. In some test compound stock solutions are prepared in a solvent, e.g., DMSO, and are serially diluted into a range of concentrations, e.g., 15 concentrations, 14 concentrations, 13 concentrations, 12 concentrations, 11 concentrations, 10 concentrations, 9 concentrations, 8 concentrations, 7 concentrations, 6 concentrations, or 5 concentrations, by a dilution factor, e.g., a 10-fold dilution factor, a 9-fold dilution factor, an 8-fold dilution factor, a 7-fold dilution factor, a 6-fold dilution factor, a 5-fold dilution factor, a 4-fold dilution factor, a 3-fold dilution factor, or a 2-fold dilution factor. In some embodiments, the serial dilutions, e.g., 100 nL of serial dilution, 90 nL of serial dilution, 80 nL of serial dilution, 70 nL of serial dilution, 60 nL of serial dilution, 50 nL of serial dilution, 30 nL of serial dilution, 20 nL of serial dilution, or 10 nL of serial dilution, are added to a multi-welled plate, e.g., a 1536-well plate, a 384-well plate, or a 96-well plate. In some embodiments, PARP-1, e.g., GST-tagged PARP-1, is diluted in assay buffer, e.g., 50 μL of assay buffer, 40 μL of assay buffer, e.g., 30 μL of assay buffer, 20 μL of assay buffer, 10 μL of assay buffer, or 5 μL of assay buffer, and is added to the plate. In some embodiments, the plate is centrifuged, e.g., at 1000 rpm for 1 min, and incubated, e.g., incubated for 30 minutes at room temperature (RT). In some embodiments, a fluorescent probe, e.g., 10 μL of 6 nM PARPi-FL (TOCRIS, Cat #6461), is diluted in an assay buffer and is added to the plate. In some embodiments, the final concentrations of PARP-1 and fluorescent probe are 20 nM and 3 nM, respectively, in a total volume of 20 μL. In some embodiments, the plate is centrifuged, e.g., at 1000 rpm for 1 minute, and the assay plate is incubated, e.g., for 4 h at RT. In some embodiments, the samples in each well are read using a plate reader, e.g., an Envision instrument using excitation=480 nm, and emission wavelength=FITC FP-P pol 535 nm & FITC FP-S pol 535 nm). In some embodiments, percent inhibition is calculated from mP values using Inhibition (%)=[1−(mPc−mPL)/(mPH−mPL)]×100%, where mPc, mPL, and mPH are the mP values of test compound, Low controls, and High controls, respectively. In some embodiments, binding IC50 values are calculated using XLFit (equation 201: y=A+((B−A)/(1+((x/C)^D))), where A=bottom, B=top, C=IC50, and D=slope) with a floating top and bottom for curves.
Compounds of the present disclosure were tested in a PARP1 fluorescence polarization binding assay at Pharmaron (Beijing, P.R. China). In this biochemical assay, binding of test compound to recombinant human PARP1 reduces the amount of binding of a fluorescent probe, and consequently reduces the detected level of fluorescence polarization. Test compound stock solutions were prepared in DMSO and then serially diluted into 10 concentrations by 3-fold dilution in a 384-well plate using a TECAN EVO200. 60 nL of each dilution was transferred to the plate using an Echo550 (Labcyte), and then 10 μL 40 nM GST-tagged PARP1 (BPS Bioscience, Cat #80501), diluted in assay buffer (50 mM Tris pH 8.0, 0.001% Triton X-100, 10 mM MgCl2, 150 mM NaCl), was added to the plate. After a centrifugation at 1000 rpm for 1 min, the assay plate was incubated for 30 min at RT. 10 μL 6 nM PARPi-FL (TOCRIS, Cat #6461), diluted using assay buffer, was then added to the plate. The final concentrations of PARP1 and PARPi-FL were 20 nM and 3 nM, respectively, in a total volume of 20 μL. […]

Sequence of recombinant human PARP1 (P09874 whole entry): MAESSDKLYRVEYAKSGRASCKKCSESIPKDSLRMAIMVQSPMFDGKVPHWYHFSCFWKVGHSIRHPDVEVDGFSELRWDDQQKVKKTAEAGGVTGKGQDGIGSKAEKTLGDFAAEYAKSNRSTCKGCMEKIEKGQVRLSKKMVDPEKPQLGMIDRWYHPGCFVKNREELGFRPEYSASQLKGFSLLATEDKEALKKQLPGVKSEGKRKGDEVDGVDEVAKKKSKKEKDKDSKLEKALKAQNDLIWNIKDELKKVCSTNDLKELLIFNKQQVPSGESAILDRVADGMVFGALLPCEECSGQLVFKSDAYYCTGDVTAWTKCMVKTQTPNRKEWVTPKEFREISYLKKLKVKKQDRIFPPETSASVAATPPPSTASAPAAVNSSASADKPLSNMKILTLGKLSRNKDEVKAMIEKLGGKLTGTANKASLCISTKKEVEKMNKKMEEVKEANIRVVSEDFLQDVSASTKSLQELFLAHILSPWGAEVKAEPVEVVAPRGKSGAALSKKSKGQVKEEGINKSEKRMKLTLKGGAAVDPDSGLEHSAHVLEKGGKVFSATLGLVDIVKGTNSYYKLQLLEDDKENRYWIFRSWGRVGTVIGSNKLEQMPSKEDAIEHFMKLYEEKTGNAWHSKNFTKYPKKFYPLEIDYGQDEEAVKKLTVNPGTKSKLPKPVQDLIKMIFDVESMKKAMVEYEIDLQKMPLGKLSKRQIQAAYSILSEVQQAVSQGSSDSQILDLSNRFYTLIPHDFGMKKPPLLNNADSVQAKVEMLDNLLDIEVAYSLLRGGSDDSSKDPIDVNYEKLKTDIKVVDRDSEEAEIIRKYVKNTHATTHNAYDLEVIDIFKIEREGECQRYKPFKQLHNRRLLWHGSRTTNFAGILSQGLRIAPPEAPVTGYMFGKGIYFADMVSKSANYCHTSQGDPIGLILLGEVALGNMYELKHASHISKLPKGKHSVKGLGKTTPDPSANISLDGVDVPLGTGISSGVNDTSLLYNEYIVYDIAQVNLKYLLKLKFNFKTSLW

IC50	SMILES
< 100 nM	CCc1cc2ncc(CN3CC4(C3)CN(c3ccc(C(=O)NC)nc3)C4)cc2[nH]c1=O [Compound No. 9, 5-(6-((7-ethyl-6-oxo-5,6-dihydro-1,5-naphthyridin-3-yl)methyl)-2,6-diazaspiro[3.3]heptan-2-yl)-N-methylpicolinamide formate]
< 100 nM	CCc1cc2ncc(CN3CCCN(c4ccc(C(=O)NC)nc4)CC3)cc2[nH]c1=O [Compound No. 6, 5-(4-((7-ethyl-6-oxo-5H-1,5-naphthyridin-3-yl)methyl)-1,4-diazepan-1-yl)-N-methylpyridine-2-carboxamide]
100 to 3000 nM	CCc1cc2ncc(CNC3CC(Nc4ccc(C(=O)NC)nc4)C3)cc2[nH]c1=O (stereo not shown) [Compound No. 29, 5-((3-(((7-ethyl-6-oxo-5,6-dihydro-1,5-naphthyridin-3-yl)methyl)amino)cyclobutyl)amino)-N-methylpicolinamide]

SMILES	IC50
CCc1cc2ncc(CN3CC4CN(c5ccc(C(=O)NC)nc5)CC4C3)cc2[nH]c1=O (stereo not shown) [Compound No. 7, 5-(5-((7-ethyl-6-oxo-5,6-dihydro-1,5-naphthyridin-3-yl)methyl)hexahydropyrrolo[3,4-c]pyrrol-2(1H)-yl)-N-methylpicolinamide]	100 to 3000 nM
